In ChEMBL document CHEMBL1158931, “Pseudosemiglabrin, a platelet aggregation inhibitor from tephrosia semiglabra” (J Nat Prod, 1990):
Active and inactive are the calls of the source. No cut-off for these calls is given here.

Tests used:
[1] = Antiplatelet aggregatory activity against U46619-induced human platelet aggregation at 6.5 ug/ml by turbidimetric method; type: functional
[2] = Antiplatelet aggregatory activity against U46619-induced human platelet aggregation by turbidimetric method; type: functional, cell-based
Platelet [3] = assay: Antiplatelet aggregatory activity against adenosine diphosphate-induced human platelet aggregation at 13 ug/ml by turbidimetric method; type: functional, cell-based
[4] = Antiplatelet aggregatory activity against U46619-induced human platelet aggregation at 45 ug/ml by turbidimetric method; type: functional
Platelet [5] = assay: Antiplatelet aggregatory activity against adenosine diphosphate-induced human platelet aggregation at 44 ug/ml by turbidimetric method; type: functional, cell-based

IC50 [2] [µM]	Structure (SMILES)	Activity [1] [%]	Activity (Platelet [3])	Activity [4] [%]	Activity (Platelet [5])
12.5	CC(=O)O[C@H]1[C@H]2c3c(ccc4c(=O)cc(-c5ccccc5)oc34)O[C@H]2OC1(C)C	85	inactive	–	–
–	CC(=O)O[C@H]1[C@@H]2c3c(ccc4c(=O)cc(-c5ccccc5)oc34)O[C@@H]2OC1(C)C	–	–	70	inactive
